Patent US7517874B2 (priority 2007, dated 2009)
Where two headings read alike, the source gives them in different places.

Assays:
[1] = target: human CB1 receptor (hCB1) (Homo sapiens, UniProt P21554); assay: cell-based; format: cell-based
Method in brief: (§1)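 Readout: LANCE TR-FRET cAMP, back-calculated from a concurrent standard curve and scaled between forskolin-only and forskolin + 1 μM CP55,940 wells. EC50 and intrinsic activity came from four-parameter fits.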

rat CB2 receptor (rCB2) = target: T1, rat CB2 receptor (rCB2) (Rattus norvegicus, UniProt Q9QZN9); assay: cell-based; format: cell-based; details: for +/− RCB2: agonist or inverse agonist at rCB2
T1 sequence (Q9QZN9 1-360): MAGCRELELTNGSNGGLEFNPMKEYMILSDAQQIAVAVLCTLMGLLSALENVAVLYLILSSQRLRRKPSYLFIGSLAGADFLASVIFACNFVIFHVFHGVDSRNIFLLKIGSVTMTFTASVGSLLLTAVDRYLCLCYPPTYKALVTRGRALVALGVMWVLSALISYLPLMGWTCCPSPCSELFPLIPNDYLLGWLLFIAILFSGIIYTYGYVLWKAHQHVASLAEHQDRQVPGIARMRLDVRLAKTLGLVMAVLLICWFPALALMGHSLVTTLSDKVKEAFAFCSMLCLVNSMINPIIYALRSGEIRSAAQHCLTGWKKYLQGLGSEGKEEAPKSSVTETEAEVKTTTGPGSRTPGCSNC
Method in brief: as §1

human CB1 receptor (hCB1), sequence (P21554 whole entry): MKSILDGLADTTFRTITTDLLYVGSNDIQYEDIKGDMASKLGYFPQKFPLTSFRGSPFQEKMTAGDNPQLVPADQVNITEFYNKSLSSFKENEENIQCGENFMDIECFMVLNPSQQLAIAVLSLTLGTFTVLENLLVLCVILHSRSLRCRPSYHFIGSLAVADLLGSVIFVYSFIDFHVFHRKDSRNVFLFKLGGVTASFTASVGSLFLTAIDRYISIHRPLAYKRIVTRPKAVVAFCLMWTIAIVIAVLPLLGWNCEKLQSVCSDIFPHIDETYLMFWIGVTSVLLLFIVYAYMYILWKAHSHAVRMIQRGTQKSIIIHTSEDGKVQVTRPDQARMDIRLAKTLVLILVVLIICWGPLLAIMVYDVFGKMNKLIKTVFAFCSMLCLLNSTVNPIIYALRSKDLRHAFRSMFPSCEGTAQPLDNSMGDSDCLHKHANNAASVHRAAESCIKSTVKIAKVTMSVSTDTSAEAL

Row | SMILES | EC50 [1] [nM] | +/− RCB2 (rat CB2 receptor (rCB2)) | EC50 (rat CB2 receptor (rCB2)) [nM] | EC50 ([1]; groups >100 nM-10 μM and >10 μM, cAMP, CHO-K1 hCB1, read-out: EC50 HCB1) [nM] | EC50 (rat CB2 receptor (rCB2); groups >100 nM-10 μM and >10 μM, cAMP, CHO-K1 rCB2, read-out: EC50 RCB2) [nM]
1 | CNC(=O)[C@@H](NC(=O)c1nc(-c2cc(F)c(F)c(F)c2)n2c1CN(C)CCC2)C(C)(C)C [Compound 375, (S)-N-(3,3-dimethyl-1-(methylamino)-1-oxobutan-2-yl)-8-methyl-3-(3,4,5-trifluorophenyl)-6,7,8,9-tetrahydro-5H-imidazo[1,5-a][1,4]diazepine-1-carboxamide] | > 10000 | + |  |  | 
2 | C/C=C/c1nc(C(=O)N[C@H](C(=O)NC)C(C)(C)C)c2n1CCCN(C)C2 [Compound 376, (S,E)-N-(3,3-dimethyl-1-(methylamino)-1-oxobutan-2-yl)-8-methyl-3-(prop-1-enyl)-6,7,8,9-tetrahydro-5H-imidazo[1,5-a][1,4]diazepine-1-carboxamide] | > 10000 | + |  |  | 
3 | CNC(=O)[C@@H](NC(=O)c1nc(C=C(C)C)n2c1CN(C)CCC2)C(C)(C)C [Compound 377, (S)-N-(3,3-dimethyl-1-(methylamino)-1-oxobutan-2-yl)-8-methyl-3-(2-methylprop-1-enyl)-6,7,8,9-tetrahydro-5H-imidazo[1,5-a][1,4]diazepine-1-carboxamide] | > 10000 | + |  |  | 
4 | CNC(=O)[C@@H](NC(=O)c1nc(-c2ccc(N3CCOCC3)cc2)n2c1CN(C)CCC2)C(C)(C)C [Compound 378, (S)-N-(3,3-dimethyl-1-(methylamino)-1-oxobutan-2-yl)-8-methyl-3-(4-morpholinophenyl)-6,7,8,9-tetrahydro-5H-imidazo[1,5-a][1,4]diazepine-1-carboxamide] | > 10000 | − |  |  | 
5 | CNC(=O)[C@@H](NC(=O)c1nc(-c2ccc(S(C)(=O)=O)cc2)n2c1CN(C)CCC2)C(C)(C)C [Compound 379, (S)-N-(3,3-dimethyl-1-(methylamino)-1-oxobutan-2-yl)-8-methyl-3-(4-(methylsulfonyl)phenyl)-6,7,8,9-tetrahydro-5H-imidazo[1,5-a][1,4]diazepine-1-carboxamide] | > 10000 |  | > 10000 |  | 
6 | CNC(=O)[C@@H](NC(=O)c1nc(-c2ccc3ccccc3c2)n2c1CN(C)CCC2)C(C)(C)C [Compound 380, (S)-N-(3,3-dimethyl-1-(methylamino)-1-oxobutan-2-yl)-8-methyl-3-(naphthalen-2-yl)-6,7,8,9-tetrahydro-5H-imidazo[1,5-a][1,4]diazepine-1-carboxamide] | > 10000 | − |  |  | 
7 | CNC(=O)[C@@H](NC(=O)c1nc(-c2ccc(N(C)C)cc2)n2c1CN(C)CCC2)C(C)(C)C [Compound 381, (S)-N-(3,3-dimethyl-1-(methylamino)-1-oxobutan-2-yl)-3-(4-(dimethylamino)phenyl)-8-methyl-6,7,8,9-tetrahydro-5H-imidazo[1,5-a][1,4]diazepine-1-carboxamide] | > 10000 | − |  |  | 
8 | CNC(=O)[C@@H](NC(=O)c1nc(-c2cccc(N(C)C)c2)n2c1CN(C)CCC2)C(C)(C)C [Compound 382, (S)-N-(3,3-dimethyl-1-(methylamino)-1-oxobutan-2-yl)-3-(3-(dimethylamino)phenyl)-8-methyl-6,7,8,9-tetrahydro-5H-imidazo[1,5-a][1,4]diazepine-1-carboxamide] | > 10000 | − |  |  | 
9 | CNC(=O)[C@@H](NC(=O)c1nc(-c2cccc(-c3ccccc3)c2)n2c1CN(C)CCC2)C(C)(C)C [Compound 383, (S)-3-(biphenyl-3-yl)-N-(3,3-dimethyl-1-(methylamino)-1-oxobutan-2-yl)-8-methyl-6,7,8,9-tetrahydro-5H-imidazo[1,5-a][1,4]diazepine-1-carboxamide] | > 10000 | − |  |  | 
10 | CNC(=O)[C@@H](NC(=O)c1nc(-c2cc(F)cc(OC)c2)n2c1CN(C)CCC2)C(C)(C)C [Compound 384, (S)-N-(3,3-dimethyl-1-(methylamino)-1-oxobutan-2-yl)-3-(3-fluoro-5-methoxyphenyl)-8-methyl-6,7,8,9-tetrahydro-5H-imidazo[1,5-a][1,4]diazepine-1-carboxamide] | > 10000 | − |  |  | 
11 | CNC(=O)[C@@H](NC(=O)c1nc(-c2cccc(S(=O)(=O)N3CCCC3)c2)n2c1CN(C)CCC2)C(C)(C)C [Compound 385, (S)-N-(3,3-dimethyl-1-(methylamino)-1-oxobutan-2-yl)-8-methyl-3-(3-(pyrrolidin-1-ylsulfonyl)phenyl)-6,7,8,9-tetrahydro-5H-imidazo[1,5-a][1,4]diazepine-1-carboxamide] | > 10000 |  | > 10000 |  | 
12 | CNC(=O)[C@@H](NC(=O)c1nc(-c2cccc(C(=O)N3CCOCC3)c2)n2c1CN(C)CCC2)C(C)(C)C [Compound 386, (S)-N-(3,3-dimethyl-1-(methylamino)-1-oxobutan-2-yl)-8-methyl-3-(3-(morpholine-4-carbonyl)phenyl)-6,7,8,9-tetrahydro-5H-imidazo[1,5-a][1,4]diazepine-1-carboxamide] | > 10000 |  | > 10000 |  | 
13 | CNC(=O)[C@@H](NC(=O)c1nc(-c2ccc(C(=O)OC)cc2F)n2c1CN(C)CCC2)C(C)(C)C [Compound 387, (S)-methyl 4-(1-(3,3-dimethyl-1-(methylamino)-1-oxobutan-2-ylcarbamoyl)-8-methyl-6,7,8,9-tetrahydro-5H-imidazo[1,5-a][1,4]diazepin-3-yl)-3-fluorobenzoate] | > 10000 |  | > 10000 |  | 
14 | CNC(=O)[C@@H](NC(=O)c1nc(C2=CCN(C(=O)OC(C)(C)C)CC2)n2c1CN(C)CCC2)C(C)(C)C [Compound 388, (S)-tert-butyl 4-(1-(3,3-dimethyl-1-(methylamino)-1-oxobutan-2-ylcarbamoyl)-8-methyl-6,7,8,9-tetrahydro-5H-imidazo[1,5-a][1,4]diazepin-3-yl)-5,6-dihydropyridine-1(2H)-carboxylate] | > 10000 |  | > 10000 |  | 
15 | CNC(=O)[C@@H](NC(=O)c1nc(-c2ccc(F)c(C(=O)N3CCOCC3)c2)n2c1CN(C)CCC2)C(C)(C)C [Compound 389, (S)-N-(3,3-dimethyl-1-(methylamino)-1-oxobutan-2-yl)-3-(4-fluoro-3-(morpholine-4-carbonyl)phenyl)-8-methyl-6,7,8,9-tetrahydro-5H-imidazo[1,5-a][1,4]diazepine-1-carboxamide] | > 10000 |  | > 10000 |  | 
16 | CNC(=O)[C@@H](NC(=O)c1nc(-c2ccc(-n3cccn3)cc2)n2c1CN(C)CCC2)C(C)(C)C [Compound 390, (S)-3-(4-(1H-pyrazol-1-yl)phenyl)-N-(3,3-dimethyl-1-(methylamino)-1-oxobutan-2-yl)-8-methyl-6,7,8,9-tetrahydro-5H-imidazo[1,5-a][1,4]diazepine-1-carboxamide] | > 10000 | − |  |  | 
17 | CNC(=O)c1cccc(-c2nc(C(=O)N[C@H](C(=O)NC)C(C)(C)C)c3n2CCCN(C)C3)c1 [Compound 391, (S)-N-(3,3-dimethyl-1-(methylamino)-1-oxobutan-2-yl)-8-methyl-3-(3-(methylcarbamoyl)phenyl)-6,7,8,9-tetrahydro-5H-imidazo[1,5-a][1,4]diazepine-1-carboxamide] | > 10000 |  | > 10000 |  | 
18 | CNC(=O)[C@@H](NC(=O)c1nc(-c2ccc(C(=O)N3CCN(C)CC3)cc2)n2c1CN(C)CCC2)C(C)(C)C [Compound 392, (S)-N-(3,3-dimethyl-1-(methylamino)-1-oxobutan-2-yl)-8-methyl-3-(4-(4-methylpiperazin-1-carbonyl)phenyl)-6,7,8,9-tetrahydro-5H-imidazo[1,5-a][1,4]diazepine-1-carboxamide] |  |  |  | > 10000 | > 10000
19 | CNC(=O)[C@@H](NC(=O)c1nc(-c2ccc(F)c(OC)c2)n2c1CN(C)CCC2)C(C)(C)C [Compound 393, (S)-N-(3,3-dimethyl-1-(methylamino)-1-oxobutan-2-yl)-3-(4-fluoro-3-methoxyphenyl)-8-methyl-6,7,8,9-tetrahydro-5H-imidazo[1,5-a][1,4]diazepine-1-carboxamide] | > 10000 | + |  |  | 
20 | CNC(=O)[C@@H](NC(=O)c1nc(-c2ccc(C(=O)N(C)C)cc2)n2c1CN(C)CCC2)C(C)(C)C [Compound 394, (S)-N-(3,3-dimethyl-1-(methylamino)-1-oxobutan-2-yl)-3-(4-(dimethylcarbamoyl)phenyl)-8-methyl-6,7,8,9-tetrahydro-5H-imidazo[1,5-a][1,4]diazepine-1-carboxamide] | > 10000 | − |  |  | 
21 | CNC(=O)[C@@H](NC(=O)c1nc(-c2ccccn2)n2c1CN(C)CCC2)C(C)(C)C [Compound 395, (S)-N-(3,3-dimethyl-1-(methylamino)-1-oxobutan-2-yl)-8-methyl-3-(pyridin-2-yl)-6,7,8,9-tetrahydro-5H-imidazo[1,5-a][1,4]diazepine-1-carboxamide] | > 10000 | + |  |  | 
22 | CNC(=O)[C@@H](NC(=O)c1nc(C2=CCCCC2)n2c1CN(C)CCC2)C(C)(C)C [Compound 396, (S)-3-cyclohexenyl-N-(3,3-dimethyl-1-(methylamino)-1-oxobutan-2-yl)-8-methyl-6,7,8,9-tetrahydro-5H-imidazo[1,5-a][1,4]diazepine-1-carboxamide] | > 10000 | + |  |  | 
